Source: patent US7034016B2, “8-phenyl-6,9-dihydro-[1,2,4]triazolo[3,4-i]purin-5-one derivatives” (Almirall Prodesfarma, S.A., priority 1999, dated 2006)

Target: T1, cyclic GMP specific phosphodiesterase (PDE 5) (Homo sapiens, UniProt O76074)
T1 construct: isolated from human platelet lysates by ion exchange chromatography using a Mono-Q column; from tissue; host or cells: human platelets (lysate, Mono-Q ion exchange fraction)
Assay: PDE 5 inhibitory activity (enzyme isolated from human platelet lysates, [3H]-cyclic GMP substrate)
Type: biochemical
Settings: PDE 5 from human platelet lysates; 0.25 mM [3H]-cyclic GMP as substrate
Description: The cyclic GMP specific phosphodiesterase (PDE 5) was isolated from human platelet lysates by ion exchange chromatography using a Mono-Q column. The enzyme activity was determined using 0.25 mM [3H]-cyclic GMP as substrate. The purification of the enzyme and the assessment of the PDE 5 inhibitory activity of our compounds were performed essentially as described by Gristwood et al., Br. J. Pharmacol. 1992, 105, 985–991.

IC50	Compound
1.5 nM	CCCOc1ccc(S(=O)(=O)Nc2ccncc2)cc1-c1nc2c([nH]1)c1nncn1c(=O)n2CCC [Example 17, 3-(5-Oxo-6-propyl-6,9-dihydro-5H-[1,2,4]triazolo[3,4-i]purin-8-yl)-4-propoxy-N-pyridin-4-yl-benzenesulphonamide]
0.97 nM	CCCOc1ccc(S(=O)(=O)N2CC(CN(C)C)C2)cc1-c1nc2c([nH]1)c1nncn1c(=O)n2CCC [Example 91, 8-[5-(3-Dimethylaminomethylazetidine-1-sulfonyl)-2-propoxyphenyl]-6-propyl-6,9-dihydro-[1,2,4]triazolo[3,4-i]purin-5-one]
0.85 nM	CCCOc1ccc(S(=O)(=O)N2C[C@@H](C)N[C@@H](C)C2)cc1-c1nc2c([nH]1)c1nncn1c(=O)n2CCC [Example 93, 8-[5-((3R,5S)-3,5-Dimethylpiperazine-1-sulfonyl)-2-propoxyphenyl]-6-propyl-6,9-dihydro-[1,2,4]triazolo[3,4-i]purin-5-one]
1.6 nM	CCCOc1ccc(S(=O)(=O)N2CCN(C(C)(C)CO)CC2)cc1-c1nc2c([nH]1)c1nncn1c(=O)n2CCC [Example 108, 8-{5-[4-(2-Hydroxy-1,1-dimethylethyl)piperazine-1-sulfonyl]-2-propoxyphenyl}-6-propyl-6,9-dihydro-[1,2,4]triazolo[3,4-i]purin-5-one]
4 nM	CCCCn1c(=O)n2cnnc2c2[nH]c(-c3cc(S(=O)(=O)N4CCN(CCO)CC4)ccc3OCCC)nc21 [Example 43, 6-Butyl-8-(2-propoxy-5-[4-(2-hydroxyethyl)piperazine-1-sulphonyl]phenyl}-6,9-dihydro[1,2,4]triazolo[3,4-i]purin-5-one]
0.84 nM	CCCCn1c(=O)n2cnnc2c2[nH]c(-c3cc(S(=O)(=O)N4CCN(C(C)(C)CO)CC4)ccc3OCCC)nc21 [Example 138, 6-Butyl-8-{5-[4-(2-hydroxy-1,1-dimethylethyl)piperazine-1-sulfonyl]-2-propoxyphenyl}-6,9-dihydro-[1,2,4]triazolo[3,4-i]purin-5-one]
14 nM	CCCOc1ccc(S(=O)(=O)N2CCN(C)CC2)cc1-c1nc2c([nH]1)c1nncn1c(=O)n2CCC [Example 18, 8-[5-(4-Methylpiperazinosulphonyl)-2-propoxyphenyl]-6-propyl-6,9-dihydro-[1,2,4]triazolo[3,4-i]purin-5-one]
0.34 nM	CCCOc1ccc(S(=O)(=O)N2CCCN(CCO)CC2)cc1-c1nc2c([nH]1)c1nncn1c(=O)n2CCC [Example 105, 8-{5-[4-(2-Hydroxyethyl)-[1,4]diazepane-1-sulfonyl]-2-propoxyphenyl}-6-propyl-6,9-dihydro-[1,2,4]triazolo[3,4-i]purin-5-one]
13 nM	CCCCOc1ccc(S(=O)(=O)N2CCN(C)CC2)cc1-c1nc2c([nH]1)c1nncn1c(=O)n2CC [Example 6]
0.54 nM	N-(3-Dimethylamino-2,2-dimethylpropyl)-3-(oxopropyl-6,9-dihydro-5H-[1,2,4]triazolo[3,4-i]purin-8-yl)-4-propoxybenzenesulfonamide [Example 101]
4 nM	CCCOc1ccc(S(=O)(=O)N2CCN(CCO)CC2)cc1-c1nc2c([nH]1)c1nncn1c(=O)n2CCC [Example 27, 8-{5-[4-(2-Hydroxyethyl)piperazine-1-sulphonyl]-2-propoxyphenyl}-6-propyl-6,9-dihydro-[1,2,4]triazolo[3,4-i]purin-5-one]
1.4 nM	CCCOc1ccc(S(=O)(=O)N2CCN[C@@H](C)C2)cc1-c1nc2c([nH]1)c1nncn1c(=O)n2CCC [Example 86, 8-[5-((S)-3-Methylpiperazine-1-sulfonyl)-2-propoxyphenyl]-6-propyl-6,9-dihydro-[1,2,4]triazolo[3,4-i]purin-5-one]
11 nM	CCCOc1ccc(S(=O)(=O)N2CCN(C)CC2)cc1-c1nc2c([nH]1)c1nncn1c(=O)n2CC [Example 4, 6-Ethyl-8-[5-(4-methylpiperazine-1-sulphonyl)-2-propoxyphenyl]-6,9-dihydro-[1,2,4]triazolo[3,4-i]purin-5-one]
0.51 nM	CCCOc1ccc(S(=O)(=O)N2C[C@@H]3C[C@H]2CN3C)cc1-c1nc2c([nH]1)c1nncn1c(=O)n2CCC [Example 89, 8-[5-((1S,4S)-5-Methyl-2,5-diazabicyclo[2.2.1]heptane-2-sulfonyl)-2-propoxyphenyl]-6-propyl-6,9-dihydro-[1,2,4]triazolo[3,4-i]purin-5-one]

Compound	IC50
8-[5-(4-Methyl-[1,4]diazepane-1-sulfonyl)-2-propoxyphenyl]-6-propyl-6,9-dihydro-[1,2,4]triazolo[3,4-i]purin,5-one [Example 22]	3.7 nM
